Columns and labels:
human eIF4E1a = biological target: T1, human eIF4E1a (Homo sapiens, UniProt P06730); experiment: Fluorescence quenching titration (FQT) binding assay with eIF4E; conditions: for Kd: fluorescence quenching titration, 20 °C, pH 7.2, average of triplicates ± SD, read-out: heIF4E1a KD
T1 construct: made in house; host or cells: E. coli Rosetta 2 (DE3)pLysS
Method: The human eIF4E1a protein was expressed without affinity tag in E. coli Rosseta 2 (DE3)pLysS strain (Novagen) under conditions leading to accumulation of the produced protein in inclusion bodies ([48]). The protein was extracted from inclusion bodies with buffer containing 6 M guanidine hydrochloride, refolded by one-step dialysis against 50 mM HEPES/KOH (pH 7.2), 100 mM KCl, 0.5 mM EDTA, 2 mM DTT, and purified by ion exchange chromatography on HiTrap SP HP 5 ml column (GE Healthcare) using salts gradient. Finally, protein was filtered using Ultrafree MC-HV Centrifugal PVDF filters with 0.45 μm membrane pore (Millipore) to remove protein aggregates and its concentration was determined spectrophotometrically assuming the theoretical extinction coefficient ϵ280nm = 52 940 L mol^−1cm^−1—calculated from amino acid composition using algorithm on ExPASy Server.
Fluorescence titration measurements were carried out on a LS-55 spectrofluorometer (Perkin Elmer Co., Norwalk, CT, USA) in a quartz semi-micro cuvette (Hellma, Germany) with optical lengths 4 mm and 10 mm for absorption and emission, respectively, which was thermostated at 20.0 ± 0.2 °C. The titrations were performed in 50 mM Hepes/KOH pH 7.2, 100 mM KCl, 0.5 mM EDTA and 1 mM DTT by adding 1 μl aliquots of increasing concentrations of the cap solutions to 1.4 ml of 0.1 μM eIF4E1a solution. The eIF4E1a fluorescence was excited at 280 nm and the fluorescence intensity was monitored at a single wavelength 340 nm. The measured fluorescence intensities were corrected for dilution (<4%) and for the inner filter effect. Association equilibrium constants (Kas) were obtained by fitting the theoretical curve for fluorescence intensity (F) upon total concentration of cap analogs ([L]) to the titration data according to the equation: […]
with the concentration of the cap analogs–eIF4E1a complex [cx] given by:
where Δϕ stands for the difference between the fluorescence efficiencies of the apo- and cap analog bound proteins; ϕlig-free is the fluorescence efficiency of the free cap analog; F(0) is the initial fluorescence, and Pact is the total concentration of the active protein ([49]). The final KAS values were calculated as a weighted average from three independent titrations and represented as the KD values. Numerical least-squares nonlinear regression analysis was performed using ORIGIN 2021 from Microcal Software Inc., USA.
Recognition of the mRNA 5′ cap by translation initiation factor 4E (eIF4E) is considered to be the rate-limiting step for the entire translation process ([63],[64]), therefore we investigated the affinity of novel trinucleotide cap analogs to the canonical human eIF4E1a protein by fluorescence quenching titration (FQT; Table 1 column 1, Figure 3) ([65]). As a reference, we determined the dissociation constant between heIF4E1a and the trinucleotide cap-1 structure m^7GpppAmpG, which was equal to 42 nM and very close to the analogous value previously determined for mouse Δ27NeIF4E (46 nM) ([12]). In the case of all modifications tested, the KD values for cap-heIF4E1a complexes are consistent with the results previously obtained for dinucleotide counterparts and murine eIF4E protein, although the magnitude of the modification effect is generally lower. The most tightly bound tetraphosphate analogs (compounds 10–12) show KD values of 6–7 nM, which means that their affinity is about 6-fold higher compared to the triphosphate counterparts. The affinities decrease upon CH2 or CCl2 modification of the tetraphosphate bridge (compounds 13–16), but they are still 4–5 times higher than for the triphosphate analogs with the same adenosine methylation pattern.

Human Dcp2 = biological target: T2, Human Dcp2 (Homo sapiens, UniProt Q8IU60); experiment: RNA decapping assay with recombinant hDcp2; format: biochemical; conditions: for Susceptibility to hDcp2 (@30 min): fraction of decapped RNA after 30 min of incubation with hDcp2, 27-nt RNA capped with the analog, 37 °C, triplicates ± SD
T2 construct: made in house; host or cells: E. coli
Method: Human Dcp2 was expressed in E. coli and purified as described previously ([52]). Short 27 nt-capped RNAs (24.2 ng) were diluted with decapping buffer (50 mM Tris–HCl pH 8.0, 50 mM NH4Cl, 0.01% NP-40, 1 mM DTT, 5 mM MgCl2 and 2 mM MnCl2; 2.9 μl of freshly prepared 10 × Buffer) and the final volume was adjusted to 29 μl with ultrapure RNase free water. 4.2 ng (5 μl) of the solution was taken out as time zero reference and diluted with 5 μl loading dye (5 M urea, 44% formamide, 20 mM EDTA, 0.03% bromophenol blue, 0.03% xylene cyanol). The remaining RNAs (20 ng/24 μl) were subjected to 10 nM hDcp2 (250 nM, 1 μl) and the mixtures were incubated at 37°C for 1 h. At defined time points (5, 15, 30 and 60 min), 4 ng of RNA (5 μl) were taken out and the reactions were quenched by adding an equal volume of loading dye. RNAs were resolved electrophoretically on denaturing 15% acrylamide:bisacrylamide 19:1/7 M urea/1 × TBE gel, stained with SYBR Gold (Invitrogen) and visualized using a Typhoon FLA 9500 (GE Healthcare). The decapping progress was determined for each time point by densitometry analysis of the gels, as a ratio between the intensity of the band corresponding to capped RNA and the sum of the intensity of bands from capped and uncapped RNAs. The percentages of remaining capped RNA were then plotted as a function of time.
The RNAs used to determine the capping efficiencies were also useful to study the susceptibility of capped RNA to decapping by hDcp2, the catalytic subunit of the major human mRNA decapping complex Dcp1/Dcp2, which releases m^7GDP and 5′-monophosphorylated RNA (in this case the 26-nt pApG-RNA24; Figure 4C). The progress of decapping at different time points (5, 15, 30 and 60 min) was monitored by HR-PAGE followed by densitometric analysis of the gels (Figure 4C, triplicates of gels are shown in Supplementary Figure S2), and the fraction of remaining capped RNA (27-nt) was plotted as a function of time (Figure 4D-G). […] For better visualization, the data of modified capped RNAs were grouped according to the type of modification present at the 5′ end and presented in separate graphs (Figure 4E–G). To quantify the relative susceptibility to hDcp2, we compared the decapping levels at the 30 min time point (Table 1). For RNAs capped with β-S-triphosphate analogs (1–6, Figure 4E, Table 1), we observed a significant difference in susceptibility to hDcp2 between RP and SP isomers, independent of the methylation pattern.

T1 sequence (P06730 whole entry): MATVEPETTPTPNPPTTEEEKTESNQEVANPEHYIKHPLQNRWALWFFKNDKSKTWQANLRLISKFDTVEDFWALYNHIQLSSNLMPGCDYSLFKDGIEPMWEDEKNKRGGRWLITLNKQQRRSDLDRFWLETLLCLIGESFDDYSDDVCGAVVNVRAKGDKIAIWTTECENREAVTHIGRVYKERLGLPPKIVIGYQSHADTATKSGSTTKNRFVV

Structure (SMILES) | Kd (human eIF4E1a) | Susceptibility to hDcp2 (@30 min) (Human Dcp2) | susceptibility of capped RNA to decapping by hDcp2 (in words) (Human Dcp2; 27-nt capped RNA, up to 60 min) | effect of modification on binding affinity for heIF4E1a (in words) (human eIF4E1a; compared to corresponding triphosphates)
COC1C(OP(=O)(O)OCC2OC(n3cnc4c(=O)[nH]c(N)nc43)C(O)C2O)C(COP(=O)(O)OP(=O)([S-])OP(=O)(O)OCC2OC(n3c[n+](C)c4c(O)nc(N)nc43)C(O)C2O)OC1n1cnc2c(N)ncnc21 (stereo not shown) [Compound 4, m^7GppSpAmpG] | 0.0166 ± 0.0011 µM | 0.32 ± 0.10 | – | –
CO[C@@H]1[C@H](OP(=O)(O)OC[C@H]2O[C@@H](n3cnc4c(=O)[nH]c(N)nc43)[C@H](O)[C@@H]2O)[C@@H](COP(=O)([O-])OP(=O)(O)CP(=O)(O)OP(=O)(O)OC[C@H]2O[C@@H](n3c[n+](C)c4c(O)nc(N)nc43)[C@H](O)[C@@H]2O)O[C@H]1n1cnc2c(N)ncnc21 [Compound 16, m^7GppCH2ppAmpG] | 0.0121 ± 0.0005 µM | 0.27 ± 0.07 | significantly reduced the susceptibility to decapping | –
COC1C(OP(=O)(O)OCC2OC(n3cnc4c(=O)[nH]c(N)nc43)C(O)C2O)C(COP(=O)(O)OP(=O)([S-])OP(=O)(O)OCC2OC(n3c[n+](C)c4c(O)nc(N)nc43)C(O)C2O)OC1n1cnc2c(N)ncnc21 (stereo not shown) [Compound 3, m^7GppSpAmpG] | 0.014 ± 0.0008 µM | 0.82 ± 0.09 | – | –
C[n+]1cn([C@@H]2O[C@H](COP(=O)(O)O[P@](=O)([S-])OP(=O)(O)OC[C@H]3O[C@@H](n4cnc5c(N)ncnc54)[C@H](O)[C@@H]3OP(=O)(O)OC[C@H]3O[C@@H](n4cnc5c(=O)[nH]c(N)nc54)[C@H](O)[C@@H]3O)[C@@H](O)[C@H]2O)c2nc(N)nc(O)c21 [Compound 2, m^7GppSpApG] | 0.0159 ± 0.0009 µM | 0.31 ± 0.09 | – | –
C[n+]1cn([C@@H]2O[C@H](COP(=O)(O)O[P@@](=O)([S-])OP(=O)(O)OC[C@H]3O[C@@H](n4cnc5c(N)ncnc54)[C@H](O)[C@@H]3OP(=O)(O)OC[C@H]3O[C@@H](n4cnc5c(=O)[nH]c(N)nc54)[C@H](O)[C@@H]3O)[C@@H](O)[C@H]2O)c2nc(N)nc(O)c21 [Compound 1, m^7GppSpApG] | 0.0126 ± 0.0008 µM | 0.81 ± 0.16 | – | –
C[n+]1cn([C@@H]2O[C@H](COP(=O)(O)OP(=O)(O)OP(=O)([O-])SC[C@H]3O[C@@H](n4cnc5c(N)ncnc54)[C@H](O)[C@@H]3OP(=O)(O)OC[C@H]3O[C@@H](n4cnc5c(=O)[nH]c(N)nc54)[C@H](O)[C@@H]3O)[C@@H](O)[C@H]2O)c2nc(N)nc(O)c21 [Compound 7, m^7Gppp^5’SApG] | 0.0314 ± 0.0019 µM | 0.60 ± 0.15 | – | virtually no effect on binding affinity
CNc1ncnc2c1ncn2[C@@H]1O[C@H](COP(=O)(O)O[P@@](=O)([S-])OP(=O)(O)OC[C@H]2O[C@@H](n3c[n+](C)c4c(O)nc(N)nc43)[C@H](O)[C@@H]2O)[C@@H](OP(=O)(O)OC[C@H]2O[C@@H](n3cnc4c(=O)[nH]c(N)nc43)[C@H](O)[C@@H]2O)[C@H]1OC [Compound 6, m^7GppSp^m6AmpG] | 0.0217 ± 0.0006 µM | 0.15 ± 0.10 | – | –

From article PMC11472058, “Trinucleotide cap analogs with triphosphate chain modifications: synthesis, properties, and evaluation as mRNA capping reagents” (Nucleic Acids Research, 2024)
